Experiments:
[1] = molecular target: T1, BuChE (equine serum lyophilized) (Equus caballus, UniProt P81908); test: biochemical; conditions: triplicate; read-out: BChE IC50 (converted)
T1 construct: purchased Sigma-Aldrich (Taufkirchen, Germany); host or cells: equine serum
Experimental: (§1) Synthetic flavonoids F1–F5 previously synthesized by our group were used in the study.
(§2) For the determination of acetylcholinesterase inhibitory potentials, AChE and BuChE were used. […] To the tube were added DTNB (100 µL) and buffer (2.4 mL). The tube was incubated at 25 °C for 5 min as pre-incubation. The reaction was started by adding ATChI (40 µL), and the mixture was incubated at 25 °C for 20 min. The absorbance at 412 nm was measured spectrophotometrically in triplicate. […] The data were recorded in triplicate, and IC50 was calculated.

[2] = molecular target: T2, AChE (electric eel type-VI-S) (Electrophorus electricus, UniProt O42275); test: biochemical; conditions: 25 °C, triplicate
T2 construct: purchased Sigma-Aldrich (Taufkirchen, Germany)
T2 sequence (O42275 24-633): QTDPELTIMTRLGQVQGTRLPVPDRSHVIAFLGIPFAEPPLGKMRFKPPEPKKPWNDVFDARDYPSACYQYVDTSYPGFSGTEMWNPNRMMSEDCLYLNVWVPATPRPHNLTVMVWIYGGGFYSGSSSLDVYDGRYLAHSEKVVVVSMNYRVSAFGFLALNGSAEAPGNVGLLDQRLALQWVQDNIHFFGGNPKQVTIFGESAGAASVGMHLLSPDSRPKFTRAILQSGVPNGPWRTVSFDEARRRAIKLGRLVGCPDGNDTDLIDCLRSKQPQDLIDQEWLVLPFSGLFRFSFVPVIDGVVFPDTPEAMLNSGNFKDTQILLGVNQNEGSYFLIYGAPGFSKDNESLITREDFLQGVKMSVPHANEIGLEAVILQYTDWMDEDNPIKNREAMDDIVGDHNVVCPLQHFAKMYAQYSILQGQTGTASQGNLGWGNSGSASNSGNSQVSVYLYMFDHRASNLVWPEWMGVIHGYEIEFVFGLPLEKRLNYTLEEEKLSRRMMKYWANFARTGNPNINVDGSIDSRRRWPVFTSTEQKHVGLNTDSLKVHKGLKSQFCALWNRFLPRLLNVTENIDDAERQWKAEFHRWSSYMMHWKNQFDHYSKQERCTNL
Experimental: as §1, §2

[3] = system: brains of scopolamine-induced amnesic mice; test: Antioxidant enzyme activities and oxidative stress markers in brain homogenate; format: in vivo, Balb/C mice; conditions: n = 8
Experimental: (§3) The animals in the control (normal) and scopolamine amnesic groups were administered vehicle (Tween-80, 2%) only. Treated animals received F1–F5 suspended in Tween-80 (2%) p.o. at their respective doses for a period of 4 weeks. […] For assessing behavioral effects using the Y-Maze Paradigm and novel object discrimination (NOD) task, scopolamine (1 mg/kg, i.p.) was given to the different groups, 30 min after the respective treatments, to induce memory impairment (amnesia) in mice. All of the tests were performed between 8:00 a.m. and 6:00 p.m. to avoid sham results in the performance of the animals.
The brain was extracted, and a homogenate (10% w/v) in 0.1 M of phosphate buffer (pH 7.4) was prepared by centrifugation for the assessment of brain oxidative status and estimating brain acetylcholinesterase activity. Catalase (CAT), superoxide dismutase (SOD), glutathione (GSH) and level of lipid peroxidation (malondialdehyde, MDA) were quantified as oxidative stress markers.

[4] = system: scopolamine-induced amnesic mice; test: Y-Maze Paradigm, spontaneous alternation in scopolamine-induced amnesic model; format: in vivo, Balb/C mice; conditions: scopolamine 1 mg/kg i.p., n = 8
From the text: For assessment of acute toxicity of the flavones (F1–F5), animals (21 in number) were divided into groups of 3 animals each. The reported protocols by Lorke were followed with slight modification to perform tests in two phases. In the first phase, one (control) group of animals were given Tween-80 (2%), and oral doses of F1–F5 were given to the remaining groups, respectively, at various doses (mg/kg body weight). […] The animals were housed in plastic cages. After two weeks, the animals were sacrificed by euthanasia with isoflurane in a humane manner for assessment of the effects on total weight and weight of the vital organs. The biochemical parameters of blood and histological studies of vital organs (kidney and liver tissue) were also assessed. […] The preliminary pharmacological activity was assessed at various dose concentrations of F1–F5 (2.5–20 mg/kg b.w.) to determine the effective dose for assessment of cognitive function using animal models.
as §3
Behavioral tasks on the Y-Maze Paradigm and “NOD” tasks were conducted in the 5th week of study to determine learning and memory functions. The apparatus arena was cleaned with 70% ethanol during the inter-trial interval to prevent a confounding error due to the influence of odor [20, 21].
The Y-Maze task is a non-invasive and reliable behavioral test that was used for memory assessment of spontaneous alternation for F1–F5 based on previously reported protocols. A single session of Y-Maze was used to record the spontaneous alternation behavior of the animals to determine exploratory behavior and instant memory functioning. The apparatus was made of three arms in a “Y” shape (35 cm × 8 cm × 15 cm) with an equilateral triangular central area. In brief, each of the mice, previously naive to the maze, was placed at the terminal end of one arm. The animals were allowed to move and explore freely for 8 min through the maze. The number of arm entries was noted. One arm entry was considered when the hind paws of the animal were completely placed inside the arm, and the series of arm entries were documented. The spontaneous alternation in percent was calculated.

T1 sequence (P81908 whole entry): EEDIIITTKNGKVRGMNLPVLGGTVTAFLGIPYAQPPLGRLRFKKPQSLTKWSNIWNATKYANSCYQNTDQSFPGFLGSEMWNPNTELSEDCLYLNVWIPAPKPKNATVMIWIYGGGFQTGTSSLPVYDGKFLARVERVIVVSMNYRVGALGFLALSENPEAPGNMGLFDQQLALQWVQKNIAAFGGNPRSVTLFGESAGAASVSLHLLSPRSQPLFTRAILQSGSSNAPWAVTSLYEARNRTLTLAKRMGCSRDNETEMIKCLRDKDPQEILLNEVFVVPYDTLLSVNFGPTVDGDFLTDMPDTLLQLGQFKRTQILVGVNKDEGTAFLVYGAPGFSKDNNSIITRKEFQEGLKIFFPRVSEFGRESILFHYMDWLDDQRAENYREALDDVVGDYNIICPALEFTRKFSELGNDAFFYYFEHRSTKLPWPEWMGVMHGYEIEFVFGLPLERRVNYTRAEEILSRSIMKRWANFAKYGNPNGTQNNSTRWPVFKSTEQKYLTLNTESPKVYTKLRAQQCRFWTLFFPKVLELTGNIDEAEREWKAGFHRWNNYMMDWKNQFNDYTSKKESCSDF

Row | SMILES | IC50 [1] [µM] | IC50 [2] [µM] | CAT ([3]; 7.5 mg/kg b.w.) | GSH ([3]; 7.5 mg/kg b.w.) | MDA ([3]; 7.5 mg/kg b.w.) [nmol/mg Protein] | SOD ([3]; 7.5 mg/kg b.w.) | CAT ([3]; 15 mg/kg b.w.) | GSH ([3]; 15 mg/kg b.w.) | MDA ([3]; 15 mg/kg b.w.) [nmol/mg Protein] | SOD ([3]; 15 mg/kg b.w.) | Spontaneous Alternation Performance ([4]; 7.5 mg/kg b.w. p.o. 4 weeks) [%] | Spontaneous Alternation Performance ([4]; 15 mg/kg b.w. p.o. 4 weeks) [%]
1 | O=c1cc(-c2ccc(Cl)cc2Cl)oc2ccccc12 [Compound F2] | 361 | 451 | 22.83 ± 1.19 U/mg of Protein | 34.93 ± 1.22 μg/mg of Protein | 15.16 ± 1.21 | 9.25 ± 1.36 U/mg of Protein | 23.71 ± 1.45 U/mg of Protein | 35.91 ± 1.39 μg/mg of Protein | 14.90 ± 1.33 | 9.33 ± 1.45 U/mg of Protein | 47.13 ± 1.65 | 49.88 ± 1.28
2 | O=c1cc(-c2cccc(Cl)c2Cl)oc2ccccc12 [Compound F3] | 505 | 434 | 22.97 ± 1.71 U/mg of Protein | 35.61 ± 1.55 μg/mg of Protein | 16.37 ± 1.13 | 9.19 ± 1.21 U/mg of Protein | 24.50 ± 1.41 U/mg of Protein | 36.98 ± 1.66 μg/mg of Protein | 15.94 ± 1.65 | 9.41 ± 1.29 U/mg of Protein | 59.61 ± 1.61 | 65.78 ± 1.57

— publication PMC9221371, “Flavonoid Derivatives as Potential Cholinesterase Inhibitors in Scopolamine-Induced Amnesic Mice: An In Vitro, In Vivo and Integrated Computational Approach” (Brain Sciences, 2022)
